Consider four compounds from US4544740A, “Process for the preparation of 5-(2-bromovinyl)-uridine” (priority 1981, dated 1985).

≈ marks a conversion by molar mass, not a printed value. Where “and” joins values, the source holds several entries; their conditions need not be identical. Equal entries are not always repeated. Entries after “also recorded” stand apart in the source; their conditions may differ. Where two headings read alike, the source gives them in different places.

A short description of data set [1]: Cytotoxicity of nucleoside analogues in HeLa cell cultures. It is filed as cell-based. As to conditions: human, hela cells. The source says:
(§1) Cytotoxicity of nucleoside analogues at concentra-
(§2) tions of CTo and CT50 in various cell cultures in […]

Another data set in a line: Water solubility. It is filed as physicochemical. As to conditions: i.v. trial limited.
For the next data set, the system named is tissue culture. In words: Comparative toxicity in tissue culture. The source says:
(§3) A method was developed for the testing of the antiviral activity of various drugs in solution which is suitable for the exact, sensitive and objective in vitro assay of drug activity exerted on the cells and tissues of both warm-blooded animals and men [Toxicology 16, 59 (1980)]. The method is also suitable for calculating from the test data the highest concentration of the test drug in the tissue culture medium which is not impairing the tissue yet (CTo).

Data set [2] deals with type 1 Herpes simplex virus. In words: Inhibitory effect of nucleoside analogues on multiplication of type 1 Herpes simplex in HeLa cell culture (virus titer, TCID50). As to conditions: for log TCID50, average: average of individual experiments; for Δ log TCID50, average / Δ log TCID50: difference from control; for antiviral (anti-herpes) effect in words: in vitro, tissue culture. It is filed as cell-based, Herpes simplex virus type 1.
From the text: as §3
The difference in the logarithm of virus titers may be considered the objective indicator of the rate of inhibition of virus multiplication.

Data set [3] is described as follows: Cytotoxicity of nucleoside analogues in RK-13 cell cultures. It is filed as cell-based. As to conditions: rabbit, rk-13 cells.
From the text: as §1, §2

A short description of data set [4]: Cytotoxicity of nucleoside analogues in Vero cell cultures. It is filed as cell-based. As to conditions: monkey, vero cells.
From the text: as §1, §2

In the next data set the test system is Herpes simplex type 1. In words: Effect of nucleoside analogues on virus multiplication in cell cultures at concentrations of CTo: Herpes simplex type 1 in HeLa cell culture. It is filed as cell-based, Herpes simplex virus type 1. The procedure:
The testing of antiviral activity was carried out according to the following considerations:
According to the literature the major part of antiviral nucleoside analogues is presumed to exert its "antiviral potency" by interfering with the functioning of the host cell which as a result fails to promote intracellular virus multiplication (it is a well known fact that virus multiplication requires a well functioning host cell).
Effect of nucleoside analogues on virus multiplica-
tion in cell cultures at concentrations of CTo
^1 = type 1 in HeLa cell culture

The nature of data set [5]: Cytotoxicity of nucleoside analogues in BHK-21 cell cultures. It is filed as cell-based. As to conditions: hamster, bhk-21 cells.
From the text: as §1, §2

A further data set concerns Herpes simplex virus. As to conditions: literature; cited from earlier work.
[6] abbreviates: individual experiments, HeLa, concentration of CTo.
[7] abbreviates: read-out: CT50 (the source's name) (converted).

Description for mice: Solvent: 20 percent aqueous dimethylsulfoxide
Acute toxicity after a single dose
/measured after 24 hours/
Dose Number of dead/treated animals

For `O=c1[nH]c(=O)n([C@@H]2O[C@H](CO)[C@@H](O)[C@H]2O)cc1/C=C/Br` [A, (E)-5-(2-Bromovinyl)-uridine], the CC50 in data set [1] was 398 µg/mL (≈ 1140 µM); in [3] it was 501 µg/mL (≈ 1440 µM); in data set [4] it was 398 µg/mL (≈ 1140 µM); in data set [5] it was 501 µg/mL (≈ 1440 µM). Moreover, the MNTC is 100 µg/mL in data set [1], 39.8 µg/mL in [3], 100 µg/mL in data set [4] and 126 µg/mL in data set [5]. In addition, the “Number of dead/treated animals” value with mice (mouse, in vivo, 1000 mg/kg) is reported as 0/5; in the data set with mice (mouse, in vivo, 1500 mg/kg), 0/5; with mice (mouse, in vivo, ip, 500 mg/kg), 0/5; in the data set with mice (mouse, in vivo, ip, 750 mg/kg), 0/5; in the data set with mice (mouse, in vivo, ip, 1000 mg/kg), 4/5; in the data set on mice (mouse, in vivo, iv, 300 mg/kg), 0/5. Also, the water solubility result in “Water solubility” is given as “poor water solubility”. In addition, the “effect on cells and tissues used for culturing” value in the data set on tissue culture was “without impairing the cells and tissues used for culturing”. Moreover, the “log TCID50, average” value in data set [2] (HeLa, concentration of CTo) turned out to be 2.66. In addition, in data set [2] (HeLa, concentration of CTo), the “Δ log TCID50, average” value is on record as 3.16. The “antiviral (anti-herpes) effect in words” value in data set [2] (listed as (E)-5-(2-Bromovinyl)-uridine) is “very active in inhibiting the multiplication of type 1 Herpes simplex virus”; in [2] (listed as (E)-5-(2-bromovinyl)-uridine) it was “marked antiviral effect in vitro; also recorded: significantly reduced”; in [2] (listed as ribonucleoside of (E)-5-(2-bromovinyl)-uracil base), “similarly high anti-herpes potency”. Besides, the “log TCID50” value in [2] (setting [6]) was 2.77 and 2.5 and 3.0 and 2.33. Also, the “Δ log TCID50” value in data set [2] (setting [6]) is 3.23 and 3.33 and 3.25 and 3.0 and 3.16 and 3.17. The “Effect on virus multiplication, Herpes simpl.” value in the data set with Herpes simplex type 1 is reported as “++++”.

With `O=c1[nH]c(=O)n([C@H]2C[C@H](O)[C@@H](CO)O2)cc1/C=C/Br` [B, (E)-5-(2-bromovinyl)-2'-deoxy-uridine, reference compound], the MNTC in [1] (HeLa, highest concentration not impairing the tissue, read-out: CTo (converted)) was 39.8 µg/mL; in [3] (RK-13, highest concentration not impairing the tissue, read-out: CTo (converted)), 20 µg/mL; in data set [4] (Vero, highest concentration not impairing the tissue, read-out: CTo (converted)), 39.8 µg/mL; in data set [5] (BHK-21, highest concentration not impairing the tissue, read-out: CTo (converted)), 316 µg/mL. The CC50 in [1] (setting [7]) is 251 µg/mL (≈ 754 µM); in data set [3] (setting [7]), 794 µg/mL (≈ 2380 µM); in data set [4] (setting [7]), 316 µg/mL (≈ 949 µM); in data set [5] (setting [7]) it was 794 µg/mL (≈ 2380 µM). In addition, the “antiviral / anti-herpes activity in words” value with Herpes simplex virus is reported as “marked anti-herpes potency”. The “Number of dead/treated animals” value is given as 0/5 with mice (i.p., 500 mg/kg single dose, 24 hours); 2/5 in the data set with mice (i.p., 750 mg/kg single dose, 24 hours); 5/5 with mice (i.p., 1000 mg/kg single dose (aqueous suspension), 24 hours); 1/5 in the data set with mice (i.v., 300 mg/kg single dose, 24 hours); 0/5 in the data set on mice (per os, 1000 mg/kg single dose (aqueous suspension), 24 hours); 0/5 in the data set with mice (per os, 1500 mg/kg single dose (aqueous suspension), 24 hours). Also, the “effect on cells and tissues used for culturing” value with tissue culture (at concentrations as low as CTo) was “without impairing the cells and tissues used for culturing”. The “log TCID50, average” value in data set [2] (HeLa, concentration of CTo) is 2.26. Also, the “Δ log TCID50, average” value in data set [2] (HeLa, concentration of CTo) came to 3.53. In data set [2], the “antiviral (anti-herpes) effect in words” value was “marked antiviral effect in vitro”. In data set [2] (setting [6]), the “Δ log TCID50” value was 3.33 and 3.84 and 3.78 and 3.17. The “Effect on virus multiplication, Herpes simpl.” value with Herpes simplex type 1 is on record as “++++”.

Consider `O=c1[nH]c(=O)n([C@H]2C[C@H](O)[C@@H](CO)O2)cc1I` [C, 5iodo-2deoxy-uridine], for which the CC50 is 20 µg/mL (≈ 56.3 µM) in data set [1], 79.4 µg/mL (≈ 224 µM) in data set [3], 39.8 µg/mL (≈ 112 µM) in [4] and 6.31 µg/mL (≈ 17.8 µM) in [5]. The MNTC in data set [1] was 0.0398 µg/mL; in [3], 5.01 µg/mL; in data set [4], 31.6 µg/mL; in data set [5], 0.1 µg/mL.

In [1], `Nc1nc(=O)n([C@H]2C[C@H](O)[C@@H](CO)O2)cc1I` [D, 5iodo-2deoxy-cytidine] gave a CC50 of 7.94 µg/mL (≈ 22.5 µM) and an MNTC of 0.01 µg/mL.
